Source: patent US20260115162A1, “COMPOSITION OR ASSOCIATION OF COMPOUNDS PREFERABLY FOR USE IN THE TREATMENT OF NERVOUS DISEASES IN PARTICULAR NEURODEGENERATIVE DISEASES, METHOD FOR THE PREPARATION OF SUCH COMPOSITION OR ASSOCIATION OF COMPOUNDS AND USES THEREOF” (PHARMACEUTICA SAN MARCO S.R.L., priority 2022, published 2026)
Like-named read-outs stand apart in the source and are kept apart here.

How the values were obtained:
[1] = Pharmacokinetics of βBA and AKBA via os in healthy volunteers, fasted and hyperlipidic meal (Sterk V et al. 2004); type: in vivo, humans
Description: Indeed, βBA has a concentration in the blood: • at least 6 times higher than AKBA both in the fasting condition and with a hyperlipidic meal; • increased by 6 times after hyperlipidic meal so that the plasma/os ratio passes from 0.09 to 0.55.

[2] = system: serotonin (5-HT); assay: Serotonin (5-HT) levels in mice treated with Aβ icv (FIG. 5a); type: in vivo
Protocol: (§1) The Aβ1-42, obtained from Tocris (Bristol, UK), was dissolved in sterile double-distilled pyrogenic-free water, as vehicle, to obtain a final concentration 4 μM [Colaianna M et al. 2010]. Mice were anesthetized with a solution (0.85 in ml/kg, i.p.), containing ketamine (Sigma Aldrich, Milan, Italy, 100 mg/10 ml), xylazine (Sigma Aldrich, Milan, Italy, 100 mg/10 ml) and acepromazine (prequillant, ATI Azienda Terapeutica Veterinaria Srl, 10 mg/10 ml) dissolved in saline solution. […] At the time of dissection, the correct needle track was assessed. […]
All behavioral experiments were conducted at 5 or 30 min after sublingual administrations of βBA or vehicle in mice treated with SHAM or AP. Based on the observed behavioral results, neurochemical and biochemical quantifications were performed 30 min after administration of βCP, FE, and βBA or vehicle in SHAM- or Aβ-treated mice. […]
5-HT, noradrenaline (NA), and KYN levels were measured in the PFC and HIPP of mice by HPLC coupled with an electrochemical detector (Ultimate ECD, Thermo Scientific Dionex, Milan, Italy) as already reported [Francavilla M et al. 2012, Morgese M G et al. 2016]. […] GLU concentrations were determined by HPLC coupled with fluorescence detection (emission length 460 nm; excitation length 340 nm), as previously published [Francavilla M et al. 2012]. […]

[3] = system: PSD-95; assay: PSD-95 in PFC and HIPP of mice treated with Aβ icv, Western blotting (FIG. 12); type: in vivo; details: after 7 days
Protocol: The βCP, FE, βBA and HA4 influence on prefrontal and hippocampal synaptic plasticity was evaluated using anti-PSD-95, anti-synaptophysin, anti-CaMKII antibodies.
as §1
The total amount of proteins was measured in homogenates by using Pierce BCA Assay (Thermo Fisher Scientific, Cleveland, OH, USA). […] After HRP-conjugated specific antibody incubation, ECL reagent (Bio-Rad Laboratories Inc., Segrate (MI), Italy) was added to the immune complex and chemiluminescence was detected by ChemiDoc MP system (Bio-Rad Laboratories Inc., Segrate (MI), Italy). Optical densities of the bands were measured using Image J software (http://rsb.info.nih.gov/ij/ accessed on 15 Mar. 2021) and normalized against bands relative to -actin (1:5,000, Abcam, Cambridge, UK).

[4] = target: T1, catG (cathepsin G) (Homo sapiens, UniProt P08311); details: in vitro; read-out: IC50 catG (cathepsin G) inhibition; cited from earlier work
T1 sequence (P08311 21-244): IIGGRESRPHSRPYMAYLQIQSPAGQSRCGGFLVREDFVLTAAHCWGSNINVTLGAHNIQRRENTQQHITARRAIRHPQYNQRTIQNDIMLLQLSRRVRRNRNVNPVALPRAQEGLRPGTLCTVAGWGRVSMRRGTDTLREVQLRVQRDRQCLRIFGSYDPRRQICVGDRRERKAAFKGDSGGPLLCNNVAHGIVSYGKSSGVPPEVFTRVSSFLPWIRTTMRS

[5] = healthy volunteers, via os, cited from earlier work
[6] = patients, via os; cited from earlier work

In the case of `C[C@H]1[C@H](C)CC[C@]2(C)CC[C@]3(C)C(=CC[C@@H]4[C@@]5(C)CC[C@@H](O)[C@](C)(C(=O)O)[C@@H]5CC[C@]43C)[C@H]12` [βBA, β-boswellic acid], the plasma/os ratio ([1]; after hyperlipidic meal) is reported as 0.55, the “blood concentration of βBA relative to AKBA” value ([1]; both fasting and hyperlipidic meal) is reported as “at least 6 times” and the plasma/os ratio ([1]; fasting condition) is reported as 0.09. The Δos/plasma ([1]; healthy volunteers, fasted conditions) was 10.9 fasted, the Δos/plasma ([1]; healthy volunteers, hyperlipidic fed conditions) was 1.82 hyperlipidic and the “increase in blood concentration / intestinal absorption induced by a hyperlipidic meal” value ([1]; healthy volunteers, hyperlipidic meal vs fasted) was 6 times. The “Serotonin (5-HT) levels” value [2] was “progressively greater serotonergic activity”, the PSD-95 tissue concentration [3] was “remove Aβ-induced alterations in a progressive manner” and the IC50 [4] was 800 nM. The “concentration in the plasma” value ([5]; fasted conditions) was 188.2 fasted ng/g o ng/ml, the “concentration in the plasma” value ([5]; hyperlipidic fed conditions) was 1,120 hyperlipidic ng/g o ng/ml and the “concentration in the plasma” value [6] was 2,236 ng/g o ng/ml.
